Experimental findings from ChEMBL document CHEMBL1201862, “PubChem BioAssay data set” (2004) are described below.

SMILES strings stand for the structures. Activity calls are given as the source filed them.

Experiment [1] concerns the target Genome polyprotein (dengue virus type 2, UniProt P29990). Briefly: flavivirus cap methylation enzyme inhibition – biochemical, confirmation dose response, primary screen (AID 588689). The experiment is classed as functional.
The target in experiment [2] is FAD-linked sulfhydryl oxidase ALR (Homo sapiens, UniProt P55789). Description: ALR-catalysed DTT oxidation blockers – biochemical, H2O2 detection, luminescence, cherry-pick, dose response (AID 493248).
Sequence of FAD-linked sulfhydryl oxidase ALR (P55789 whole entry): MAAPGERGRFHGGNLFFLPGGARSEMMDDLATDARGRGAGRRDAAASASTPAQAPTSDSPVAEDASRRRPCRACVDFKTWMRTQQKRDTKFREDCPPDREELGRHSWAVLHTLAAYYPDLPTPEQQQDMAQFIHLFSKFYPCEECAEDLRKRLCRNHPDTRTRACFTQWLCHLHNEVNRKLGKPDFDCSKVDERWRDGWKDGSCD
Experiment [3] deals with T1, SUMO-activating enzyme (Homo sapiens, UniProt Q9UBT2). Description: blockers of SAE1/SAE2–UBC9 SUMO transfer – biochemical, HTRF, uHTS, primary screen (AID 2006). The experiment is classed as protein-complex assay. On the technique in general: In TR-FRET formats the signal depends on donor and acceptor labels being close together.
T1 sequence (Q9UBE0 whole entry): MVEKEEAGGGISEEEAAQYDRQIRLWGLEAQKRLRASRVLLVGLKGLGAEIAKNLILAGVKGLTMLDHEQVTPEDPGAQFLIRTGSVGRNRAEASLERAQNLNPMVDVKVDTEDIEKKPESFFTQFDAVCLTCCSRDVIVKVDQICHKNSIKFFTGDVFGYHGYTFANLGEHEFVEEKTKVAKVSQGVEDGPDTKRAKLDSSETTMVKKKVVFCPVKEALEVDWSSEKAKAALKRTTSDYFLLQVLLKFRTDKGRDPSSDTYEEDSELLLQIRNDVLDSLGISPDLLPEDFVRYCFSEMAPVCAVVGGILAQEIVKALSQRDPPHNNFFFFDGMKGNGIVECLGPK
T1 sequence (Q9UBT2 whole entry): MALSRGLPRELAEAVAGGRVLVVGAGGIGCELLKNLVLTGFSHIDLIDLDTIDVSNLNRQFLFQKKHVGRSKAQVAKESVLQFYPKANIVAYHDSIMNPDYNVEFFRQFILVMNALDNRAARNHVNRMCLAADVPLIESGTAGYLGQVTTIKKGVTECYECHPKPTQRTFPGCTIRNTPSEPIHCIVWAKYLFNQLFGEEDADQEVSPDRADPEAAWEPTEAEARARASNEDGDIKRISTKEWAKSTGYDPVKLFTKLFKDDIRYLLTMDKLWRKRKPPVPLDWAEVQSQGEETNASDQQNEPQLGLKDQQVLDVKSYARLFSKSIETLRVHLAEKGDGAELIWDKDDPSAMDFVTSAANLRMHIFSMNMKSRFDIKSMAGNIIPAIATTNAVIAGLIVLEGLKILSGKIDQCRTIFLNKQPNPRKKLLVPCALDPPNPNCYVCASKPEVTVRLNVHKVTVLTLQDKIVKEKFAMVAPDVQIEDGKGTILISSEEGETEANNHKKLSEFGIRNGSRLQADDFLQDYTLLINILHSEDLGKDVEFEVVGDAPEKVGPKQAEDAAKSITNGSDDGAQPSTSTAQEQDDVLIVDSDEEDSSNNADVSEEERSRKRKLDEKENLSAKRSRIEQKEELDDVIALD
In experiment [4] the target is T1, SUMO-activating enzyme. Description: blockers of UBC9-mediated SUMO conjugation – biochemical, AlphaScreen, SUMOylation inhibitor project, confirmation (AID 2018). It is filed as functional. (In general: Alpha assays give light when donor and acceptor beads are brought close together.)
Experiment [5] can be described thus: viability of uninfected HEp-2 cells – cell-based, HTS, cytotoxicity control for RSV inhibitor project, dose response (AID 2410). The experiment is classed as functional. The note with it: human respiratory syncytial virus.
Experiment [6] addresses T2, Type-1 angiotensin II receptor (Homo sapiens, UniProt P30556).
T2 sequence (P30556 whole entry): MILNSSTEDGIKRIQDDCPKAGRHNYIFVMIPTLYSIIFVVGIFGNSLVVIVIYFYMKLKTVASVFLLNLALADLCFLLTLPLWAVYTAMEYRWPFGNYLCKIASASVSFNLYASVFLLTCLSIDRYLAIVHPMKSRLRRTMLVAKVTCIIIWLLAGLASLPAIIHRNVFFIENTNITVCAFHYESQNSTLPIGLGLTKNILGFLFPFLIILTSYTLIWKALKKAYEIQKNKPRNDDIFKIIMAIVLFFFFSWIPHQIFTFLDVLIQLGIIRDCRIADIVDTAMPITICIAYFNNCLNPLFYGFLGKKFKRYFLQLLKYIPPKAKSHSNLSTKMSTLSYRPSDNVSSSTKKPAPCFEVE
Description: antagonism of angiotensin II type 1 receptor – cell-based, uHTS hits, selectivity assay for APJ receptor antagonist project, dose response (AID 463214).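 Further: antagonist potency against angiotensin II stimulated AT1 response.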 The experiment is classed as functional.

In experiment [7] the target is Beta-galactosidase (Escherichia coli, UniProt Q8VNN2). Description: PubChem AID 485352. The experiment is classed as functional.
In experiment [8] the target is T3, Aminopeptidase N (Plasmodium falciparum FcB1/Columbia, UniProt O96935).
T3 sequence (O96935 whole entry): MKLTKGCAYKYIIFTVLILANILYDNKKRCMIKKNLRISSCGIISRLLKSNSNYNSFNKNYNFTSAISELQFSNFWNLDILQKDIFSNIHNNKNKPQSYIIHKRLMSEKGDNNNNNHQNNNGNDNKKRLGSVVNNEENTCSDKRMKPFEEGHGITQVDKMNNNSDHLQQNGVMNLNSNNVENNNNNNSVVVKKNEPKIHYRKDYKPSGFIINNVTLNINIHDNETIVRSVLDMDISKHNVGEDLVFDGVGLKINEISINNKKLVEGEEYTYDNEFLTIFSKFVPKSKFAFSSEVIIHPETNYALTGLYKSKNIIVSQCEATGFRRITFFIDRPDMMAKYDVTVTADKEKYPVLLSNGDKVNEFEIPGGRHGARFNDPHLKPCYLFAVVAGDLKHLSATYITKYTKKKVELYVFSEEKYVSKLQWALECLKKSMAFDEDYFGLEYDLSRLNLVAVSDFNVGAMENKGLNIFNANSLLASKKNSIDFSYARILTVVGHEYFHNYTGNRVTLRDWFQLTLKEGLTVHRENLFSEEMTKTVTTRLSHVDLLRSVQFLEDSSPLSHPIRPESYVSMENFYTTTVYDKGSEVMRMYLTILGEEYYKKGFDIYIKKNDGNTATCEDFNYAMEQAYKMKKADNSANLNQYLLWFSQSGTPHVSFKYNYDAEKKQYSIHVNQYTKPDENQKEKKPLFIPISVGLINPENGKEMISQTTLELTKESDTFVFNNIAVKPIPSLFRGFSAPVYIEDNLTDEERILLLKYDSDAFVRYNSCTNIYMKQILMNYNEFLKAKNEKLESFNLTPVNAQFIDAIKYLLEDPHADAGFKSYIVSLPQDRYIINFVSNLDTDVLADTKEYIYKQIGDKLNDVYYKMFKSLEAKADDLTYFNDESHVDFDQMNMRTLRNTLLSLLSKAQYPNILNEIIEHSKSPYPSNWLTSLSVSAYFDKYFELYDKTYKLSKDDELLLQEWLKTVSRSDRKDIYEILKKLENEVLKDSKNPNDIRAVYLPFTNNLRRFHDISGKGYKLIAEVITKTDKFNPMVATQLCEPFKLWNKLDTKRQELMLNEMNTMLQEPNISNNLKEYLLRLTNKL
Briefly: malaria alanyl aminopeptidase activity blockers – biochemical, fluorogenic H-Leu-NHMec substrate, 1536-well (AID 1445). On the set-up: species or system Plasmodium falciparum 3D7, 3D7.

The subject of experiment [9] is Streptococcus. Description: GAS UMAA2166 growth inhibition – luminescence, BacTiterGlo, counter-screen for streptokinase expression inhibitor project, dose response (AID 1915).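 Further: potency for reduction of bacterial viability or growth.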 It is filed as functional, organism-based.
Experiment [10] in a line: alpha-synuclein stem-loop luciferase translation blockers – H4 neuroglioma cells, luminescence, confirmation (AID 1988). It is filed as functional, cell-based.
Experiment [11] has as its system Streptococcus sp. 'group A'. Description: Streptococcus pyogenes SK(-)GAS viability under kanamycin – luminescence, BacTiterGlo, confirmation, counter-screen for streptokinase expression inhibitor project, dose response (AID 1900). It is filed as functional, organism-based. Background: A counterscreen serves to expose hits that act by an unwanted route or on another target.

A short description of experiment [12]: Luminescence Cell-Based Dose Response HTS to Identify Inhibitors of 5'UTR Stem-Loop Driven Prion Protein mRNA Translation in H4 Neuroglioblastoma Cells. [Related pubchem assays: 1827 (Project Summary), 1813 (Primary HTS)]. It is filed as functional.
A short description of experiment [13]: Trypanosoma cruzi growth suppression in host cells – NIH3T3 host cells, beta-gal luminescence, confirmation (AID 2044).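 Further: intracellular parasites grown in NIH/3T3 mouse fibroblasts as host cells; luminescent beta-galactosidase reporter signal from transgenic T. cruzi replicating inside host cells; inhibitors lower the luminescence signal.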 The experiment is classed as functional, cell-based.
A short description of experiment [14]: luciferase reporter signal suppression in cells – H4 neuroglioma cells, luminescence, dose response (AID 1990). It is filed as functional, cell-based.
Experiment [15] is described as follows: NIH3T3 cell viability loss – ATP luminescence, mouse fibroblasts, counter-screen, dose response (AID 2010).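 Further: cells exposed to compound for about 90 hours before reading.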 It is filed as functional, cell-based.
For experiment [16], the target named is T4, Microphthalmia-associated transcription factor (Homo sapiens, UniProt O75030).
T4 sequence (O75030 whole entry): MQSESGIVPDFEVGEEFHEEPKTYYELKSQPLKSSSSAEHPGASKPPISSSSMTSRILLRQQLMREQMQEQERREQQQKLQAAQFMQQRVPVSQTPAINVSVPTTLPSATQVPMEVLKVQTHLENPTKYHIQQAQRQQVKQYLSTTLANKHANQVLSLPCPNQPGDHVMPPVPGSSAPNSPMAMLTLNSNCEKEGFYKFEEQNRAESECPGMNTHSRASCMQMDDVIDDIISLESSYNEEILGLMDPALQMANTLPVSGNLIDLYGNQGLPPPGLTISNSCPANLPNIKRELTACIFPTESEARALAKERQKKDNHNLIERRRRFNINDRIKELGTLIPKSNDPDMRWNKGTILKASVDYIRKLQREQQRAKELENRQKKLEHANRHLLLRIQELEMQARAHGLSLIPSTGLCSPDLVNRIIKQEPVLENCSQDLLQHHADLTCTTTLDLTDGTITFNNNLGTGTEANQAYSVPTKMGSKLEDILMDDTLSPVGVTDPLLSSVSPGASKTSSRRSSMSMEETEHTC
Briefly: reducers of TRPM1 reporter luminescence, concentration series – cell-based, SK-MEL-5, cherry-picked, set 3, MITF inhibitor project, dose response (AID 493073).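 Further: SK-MEL-5 melanoma cells with luciferase driven by the MITF target TRPM1 promoter.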 The experiment is classed as functional.

Experiment [17] deals with T5, Fatty acid synthase (Homo sapiens, UniProt P49327). Description: inhibition of human FAS-TE enzyme activity – biochemical, endpoint fluorescence intensity, uHTS hits, dose response (AID 624327).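 Further: fluorescence from hydrolysis of an O-methyl fluorescein acyl ester substrate by the enzyme.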 The experiment is classed as functional.
T5 sequence (P49327 whole entry): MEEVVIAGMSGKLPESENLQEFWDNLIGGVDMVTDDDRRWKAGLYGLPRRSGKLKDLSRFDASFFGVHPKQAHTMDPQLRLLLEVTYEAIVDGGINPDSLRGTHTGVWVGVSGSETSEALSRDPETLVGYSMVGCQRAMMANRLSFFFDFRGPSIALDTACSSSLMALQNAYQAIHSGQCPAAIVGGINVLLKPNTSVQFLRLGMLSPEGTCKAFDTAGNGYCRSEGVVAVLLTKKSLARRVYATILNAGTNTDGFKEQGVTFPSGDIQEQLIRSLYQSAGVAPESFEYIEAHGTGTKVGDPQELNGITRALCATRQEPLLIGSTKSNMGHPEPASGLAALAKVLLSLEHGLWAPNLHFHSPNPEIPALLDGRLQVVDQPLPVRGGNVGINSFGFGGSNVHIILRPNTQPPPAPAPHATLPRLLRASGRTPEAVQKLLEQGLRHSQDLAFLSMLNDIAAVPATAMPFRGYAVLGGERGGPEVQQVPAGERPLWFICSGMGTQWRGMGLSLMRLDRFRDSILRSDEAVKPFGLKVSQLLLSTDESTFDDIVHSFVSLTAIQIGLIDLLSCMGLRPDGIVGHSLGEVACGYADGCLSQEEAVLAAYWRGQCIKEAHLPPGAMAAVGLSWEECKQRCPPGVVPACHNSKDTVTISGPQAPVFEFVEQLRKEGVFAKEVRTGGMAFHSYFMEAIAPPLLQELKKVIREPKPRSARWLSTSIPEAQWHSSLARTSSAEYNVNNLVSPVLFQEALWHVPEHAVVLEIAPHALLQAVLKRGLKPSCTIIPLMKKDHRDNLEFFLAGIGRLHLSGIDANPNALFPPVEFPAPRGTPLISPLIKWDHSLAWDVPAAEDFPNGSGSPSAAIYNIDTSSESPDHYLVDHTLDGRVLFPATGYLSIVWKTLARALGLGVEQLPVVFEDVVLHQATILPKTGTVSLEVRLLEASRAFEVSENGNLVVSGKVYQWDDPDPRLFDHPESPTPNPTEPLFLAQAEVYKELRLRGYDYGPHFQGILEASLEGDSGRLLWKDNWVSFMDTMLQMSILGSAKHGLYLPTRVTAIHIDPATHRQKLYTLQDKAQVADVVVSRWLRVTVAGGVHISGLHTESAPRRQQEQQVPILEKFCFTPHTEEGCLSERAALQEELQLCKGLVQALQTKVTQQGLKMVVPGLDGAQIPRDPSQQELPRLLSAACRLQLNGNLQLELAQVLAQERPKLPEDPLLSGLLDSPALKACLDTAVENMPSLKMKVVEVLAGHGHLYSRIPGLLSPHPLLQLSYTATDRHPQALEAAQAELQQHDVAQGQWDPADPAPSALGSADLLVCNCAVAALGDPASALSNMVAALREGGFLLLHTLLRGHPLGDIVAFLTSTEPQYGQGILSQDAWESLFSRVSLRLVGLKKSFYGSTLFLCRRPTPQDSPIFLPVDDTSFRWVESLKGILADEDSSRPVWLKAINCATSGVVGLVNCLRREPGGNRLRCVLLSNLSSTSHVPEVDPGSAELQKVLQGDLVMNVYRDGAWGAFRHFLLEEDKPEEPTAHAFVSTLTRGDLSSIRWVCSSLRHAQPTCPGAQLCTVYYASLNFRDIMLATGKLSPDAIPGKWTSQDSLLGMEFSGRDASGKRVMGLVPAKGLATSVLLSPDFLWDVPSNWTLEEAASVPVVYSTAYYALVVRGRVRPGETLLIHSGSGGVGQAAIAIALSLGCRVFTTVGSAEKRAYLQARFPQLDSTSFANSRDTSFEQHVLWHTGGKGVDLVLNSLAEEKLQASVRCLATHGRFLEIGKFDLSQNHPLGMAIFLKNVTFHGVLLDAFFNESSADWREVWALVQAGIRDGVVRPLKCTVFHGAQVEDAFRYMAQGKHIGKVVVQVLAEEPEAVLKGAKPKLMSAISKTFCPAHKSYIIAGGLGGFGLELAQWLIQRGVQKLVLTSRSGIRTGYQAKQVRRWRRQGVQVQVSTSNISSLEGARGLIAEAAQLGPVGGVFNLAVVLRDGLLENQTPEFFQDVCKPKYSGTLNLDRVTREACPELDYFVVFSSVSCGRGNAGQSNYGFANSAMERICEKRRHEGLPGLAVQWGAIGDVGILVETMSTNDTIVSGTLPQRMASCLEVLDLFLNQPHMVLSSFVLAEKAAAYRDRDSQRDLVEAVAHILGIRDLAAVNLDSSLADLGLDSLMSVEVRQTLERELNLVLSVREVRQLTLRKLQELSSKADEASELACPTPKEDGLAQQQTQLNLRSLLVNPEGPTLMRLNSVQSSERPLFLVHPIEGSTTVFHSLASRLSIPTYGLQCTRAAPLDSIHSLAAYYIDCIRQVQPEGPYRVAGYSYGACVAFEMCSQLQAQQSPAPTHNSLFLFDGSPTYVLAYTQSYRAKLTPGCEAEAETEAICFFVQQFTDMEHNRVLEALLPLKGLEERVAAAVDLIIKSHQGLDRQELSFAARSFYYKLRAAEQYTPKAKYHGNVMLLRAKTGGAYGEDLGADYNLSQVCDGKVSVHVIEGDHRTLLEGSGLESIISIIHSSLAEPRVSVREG
Experiment [18] has as its target T6, Calpain-2 catalytic subunit (Sus scrofa, UniProt P43367).
T6 sequence (P43367 whole entry): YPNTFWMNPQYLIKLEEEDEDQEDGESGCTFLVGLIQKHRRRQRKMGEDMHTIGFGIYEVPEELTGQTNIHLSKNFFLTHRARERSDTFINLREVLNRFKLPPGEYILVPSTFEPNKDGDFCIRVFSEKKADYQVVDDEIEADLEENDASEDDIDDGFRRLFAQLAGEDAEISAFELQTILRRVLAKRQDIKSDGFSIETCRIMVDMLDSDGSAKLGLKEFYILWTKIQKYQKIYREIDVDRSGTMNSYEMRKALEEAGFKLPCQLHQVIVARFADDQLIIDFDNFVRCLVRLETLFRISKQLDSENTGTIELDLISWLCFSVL
Briefly: m-calpain protease blockers, concentration series – biochemical, fluorogenic peptide substrate, dose response (AID 1420). It is filed as functional.

Experiment [19] has as its target T5, Fatty acid synthase. Briefly: inhibition of human FAS-TE enzyme activity – biochemical, kinetic fluorescence intensity, dose response (AID 624326).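 Further: rate of fluorescence rise from hydrolysis of a fluorogenic O-methyl fluorescein ester substrate.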 The experiment is classed as functional.

As usually defined, the IC50 is the concentration that gives 50% inhibition. Usually AC50 stands for the concentration giving half of the maximal activity seen. As usually defined, the CC50 is the concentration that lowers cell viability or growth by half. As usually defined, the EC50 is the concentration at which the effect is half-maximal.

Sequence of Genome polyprotein (P29990 2492-3391 limits assumed): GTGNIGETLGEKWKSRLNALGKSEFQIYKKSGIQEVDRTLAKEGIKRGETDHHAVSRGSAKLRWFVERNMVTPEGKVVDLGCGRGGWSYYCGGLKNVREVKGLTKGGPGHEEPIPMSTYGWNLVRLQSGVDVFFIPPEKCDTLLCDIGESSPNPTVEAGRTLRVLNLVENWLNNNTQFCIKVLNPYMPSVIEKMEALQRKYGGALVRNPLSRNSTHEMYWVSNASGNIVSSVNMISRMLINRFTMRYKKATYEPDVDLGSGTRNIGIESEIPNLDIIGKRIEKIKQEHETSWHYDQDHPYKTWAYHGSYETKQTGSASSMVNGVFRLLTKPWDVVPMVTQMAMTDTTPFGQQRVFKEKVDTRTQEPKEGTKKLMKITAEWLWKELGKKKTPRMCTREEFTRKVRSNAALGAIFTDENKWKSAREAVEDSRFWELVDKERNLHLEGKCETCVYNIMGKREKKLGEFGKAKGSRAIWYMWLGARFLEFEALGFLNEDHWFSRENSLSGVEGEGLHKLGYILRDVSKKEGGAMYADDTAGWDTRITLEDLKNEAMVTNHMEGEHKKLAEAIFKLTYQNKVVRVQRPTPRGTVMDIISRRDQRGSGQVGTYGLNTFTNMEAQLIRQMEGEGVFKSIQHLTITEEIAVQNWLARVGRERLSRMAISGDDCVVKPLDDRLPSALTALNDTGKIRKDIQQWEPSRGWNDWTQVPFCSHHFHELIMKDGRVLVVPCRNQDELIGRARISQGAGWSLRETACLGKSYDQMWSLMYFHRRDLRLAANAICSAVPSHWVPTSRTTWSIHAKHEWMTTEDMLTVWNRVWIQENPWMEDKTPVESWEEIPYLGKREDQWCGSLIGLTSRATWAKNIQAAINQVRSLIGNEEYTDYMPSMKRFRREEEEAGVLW

For `O=C(O)CN1C(=O)/C(=C\c2cccc(OCc3ccccc3)c2)SC1=S`, in experiment [1], the IC50 was 42.2 µM (active). Moreover, the half-maximal activity concentration (AC50) in experiment [2] is 4.52 µM (active).
For the molecule `O=C1NC(=O)N(Cc2ccco2)C(=O)/C1=C\c1cccn1CCOc1ccc(Cl)cc1`, the IC50 in experiment [3] is 35.7 µM (active); in experiment [4], 5.71 µM (active). The CC50 in experiment [5] was 24.2 µM (active).
In the case of `COc1ccc(C(=O)NC(=S)Nc2nnn(C)n2)cc1`, the IC50 in [6] is listed as > 40 µM (not active). In [7], the EC50 is > 40 µM (inactive).
On to `COc1ccccc1/C=C1\SC(=S)N(C(C(=O)O)c2ccccc2)C1=O` (stereo not drawn), for which the results for the IC50 in experiment [8] and in [1] were 26 µM (active) and 39.1 µM (active), respectively.
On to `CC(C)(C)c1cc(Cl)c(O)c(NC(=S)NC(=O)c2cccnc2)c1`, for which the 50% effective concentration (EC50) in experiment [9] was 6.42 µM (active); in experiment [10], > 120 µM (not active); in [11], 0.448 µM (active); in [12], 15 µM (active); in experiment [13], 2.56 µM (active); in [14] it was 16.5 µM (active). Moreover, the EC50 in [15] was 6.97 µM (active); in experiment [7], > 40 µM (inactive). Besides, the IC50 in experiment [6] is given as 22.2 µM (not active).
Regarding `CCOc1cc(/C=C(/C#N)c2ccc(Cl)cc2)cc(Cl)c1OCC(=O)O`, in experiment [16], the AC50 is 5.61 µM (active). Moreover, the IC50 in [17] was 6.78 µM (active); in [18], 3.06 µM (not active); in experiment [1], 34.5 µM (active); in experiment [19], 10.4 µM (active).
